In US8263595B2, “Triazolopyridine compounds and their use as ask inhibitors” (Merck Serono SA, priority 2007, dated 2012):
Counter-ions that a name gives are not always drawn.

Molecular target: T1, human recombinant ASK1 (Homo sapiens, UniProt Q99683)
T1 sequence (Q99683 1-1374): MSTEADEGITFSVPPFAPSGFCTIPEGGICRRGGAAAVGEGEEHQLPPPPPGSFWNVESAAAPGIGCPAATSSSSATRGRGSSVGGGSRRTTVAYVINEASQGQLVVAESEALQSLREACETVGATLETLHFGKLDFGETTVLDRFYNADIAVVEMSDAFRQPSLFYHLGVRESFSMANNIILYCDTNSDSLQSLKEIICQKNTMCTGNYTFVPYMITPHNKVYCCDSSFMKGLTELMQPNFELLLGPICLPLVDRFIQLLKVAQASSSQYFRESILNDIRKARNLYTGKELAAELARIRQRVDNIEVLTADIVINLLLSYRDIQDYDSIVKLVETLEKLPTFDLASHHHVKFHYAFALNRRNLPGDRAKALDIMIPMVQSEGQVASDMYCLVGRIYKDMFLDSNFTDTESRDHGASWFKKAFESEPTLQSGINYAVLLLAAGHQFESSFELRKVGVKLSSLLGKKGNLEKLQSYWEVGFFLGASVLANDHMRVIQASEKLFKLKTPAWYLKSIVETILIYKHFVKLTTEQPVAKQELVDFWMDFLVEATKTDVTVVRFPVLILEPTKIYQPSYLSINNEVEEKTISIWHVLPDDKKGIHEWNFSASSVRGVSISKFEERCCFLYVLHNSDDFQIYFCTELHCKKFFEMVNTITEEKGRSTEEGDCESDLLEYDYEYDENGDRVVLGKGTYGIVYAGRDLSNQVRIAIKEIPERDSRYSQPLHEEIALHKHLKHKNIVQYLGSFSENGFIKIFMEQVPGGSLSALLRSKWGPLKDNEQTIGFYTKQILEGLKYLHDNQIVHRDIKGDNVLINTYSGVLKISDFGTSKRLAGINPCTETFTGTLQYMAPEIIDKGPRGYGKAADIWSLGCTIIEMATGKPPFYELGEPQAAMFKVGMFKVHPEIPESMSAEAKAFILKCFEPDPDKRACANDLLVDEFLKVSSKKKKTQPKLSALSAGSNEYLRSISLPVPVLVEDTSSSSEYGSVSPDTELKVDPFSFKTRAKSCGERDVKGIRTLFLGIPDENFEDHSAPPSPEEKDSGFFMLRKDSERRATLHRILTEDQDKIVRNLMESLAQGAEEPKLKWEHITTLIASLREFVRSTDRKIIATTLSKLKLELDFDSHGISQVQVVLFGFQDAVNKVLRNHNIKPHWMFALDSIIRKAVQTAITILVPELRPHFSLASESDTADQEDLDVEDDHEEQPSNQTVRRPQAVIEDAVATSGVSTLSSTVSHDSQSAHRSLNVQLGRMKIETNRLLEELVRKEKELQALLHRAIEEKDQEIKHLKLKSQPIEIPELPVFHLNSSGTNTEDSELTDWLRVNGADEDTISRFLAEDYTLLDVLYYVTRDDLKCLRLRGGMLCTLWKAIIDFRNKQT
Assay: Enzyme inhibition assay (in vitro ASK1 assay), luciferase-based measurement of remaining ATP
Type: biochemical
Conditions: human recombinant ASK1, MBP and ATP as substrates, 180 minutes at 30° C.; triplicates on at least 2 separate occasions
Procedure: Assays were performed in a 384 well plate (Corning, #3654) format, using the human recombinant ASK1 as an enzyme and MBP (myelin basic protein, Upstate/Millipore, #13-104) with ATP as substrates. Assay read out was the measurement of the amount of ATP remaining after stopping the reaction, using a luciferase-based kit from Cambrex.
Compounds to be tested were dissolved in 100% DMSO at a concentration of 10 mM. Subsequent dilutions were performed in 100% DMSO using a Biomek FX Workstation. 5 μL of diluted compound or vehicle (6% DMSO) was distributed to a 384 well plate. 5 μL of substrates (ATP 7.5 μM, MBP 450 ng/μL) diluted in ASK1 buffer (20 mM Tris HCl pH 7.4, 0.001% Brij35, 0.01% BSA, 5 mM MgCl2, 1 mM DL-Dithiothreitol) were added, followed by 5 μL at of human recombinant ASK1 enzyme (22.5 ng/mL) diluted in ASK1 buffer in order to start the reaction. The reaction ran for 180 minutes at 30° C. before the addition of 5 μL of stop solution (Cambrex, #LT23-231). 10 μL of Pklight ATP detection reagent (Cambrex #LT23-233) were added. After 120 min of incubation, luminescence was measured on a Perkin-Elmer Victor 2 spectrofluorimeter. The percentage of inhibition relative to the fluorescence observed in the presence of solvent (1% DMSO) alone was determined. The IC50 values for inhibition were determined in triplicates on at least 2 separate occasions.

Row | SMILES | IC50
1 | COc1cc(-c2ccc3nc(NC(=O)c4ccccc4)nn3c2)ccc1O [Example 56, N-[6-(4-hydroxy-3-methoxyphenyl)[1,2,4]triazolo[1,5-a]pyridin-2-yl]benzamide hydrochloride] | 990 ± 40 nM
2 | O=C(Nc1nc2cccc(SC3CCCCC3)n2n1)c1cccnc1 [Example 83, N-[5-(cyclohexylthio)[1,2,4]triazolo[1,5-a]pyridin-2-yl]nicotinamide] | 1900 ± 200 nM
3 | CN(C)Cc1ccc(C(=O)Nc2nc3cccc(NC4CCCCC4)n3n2)cc1 [Example 87, N-[5-(cyclohexylamino)[1,2,4]triazolo[1,5-a]pyridin-2-yl]-4-[(dimethylamino)methyl]benzamide] | 5960 nM
4 | O=C(Nc1nc2cccc(NC3CCCCC3)n2n1)c1ccc(N2CCOCC2)nc1 [Example 86, N-[5-(cyclohexylamino)[1,2,4]triazolo[1,5-a]pyridin-2-yl]-6-morpholin-4-ylnicotinamide] | 110 ± 50 nM
5 | CN1CCC(Nc2cccc3nc(NC(=O)c4ccccc4)nn23)CC1 [Example 72, N-{5-[(1-methylpiperidin-4-yl)amino][1,2,4]triazolo[1,5-a]pyridin-2-yl}benzamide] | 4080 nM
6 | O=C(Nc1nc2cc(Cl)cc(NC3CCC3)n2n1)c1cccnc1 [Example 118, N-[7-chloro-5-(cyclobutylamino)[1,2,4]triazolo[1,5-a]pyridin-2-yl]nicotinamide] | 87 ± 6 nM
7 | O=C(Nc1nc2cccc(NC3CCCCC3)n2n1)c1ccc(NCCCO)nc1 [Example 132, N-[5-(cyclohexylamino)[1,2,4]triazolo[1,5-a]pyridin-2-yl]-6-[(3-hydroxypropyl)amino]nicotinamide] | 91 ± 26 nM
8 | CC(C)=Cc1cccc2nc(NC(=O)c3cccnc3)nn12 [Example 94, N-[5-(2-methylprop-1-en-1-yl)[1,2,4]triazolo[1,5-a]pyridin-2-yl]nicotinamide dihydrochloride] | 5900 nM

Continued by falling IC50, values first:

Row | IC50 | SMILES
9 | 9860 nM | Cc1ccc(CNc2cccc3nc(NC(=O)c4cccnc4)nn23)o1 [Example 63, N-(5-{[(5-methyl-2-furyl)methyl]amino}[1,2,4]triazolo[1,5-a]pyridin-2-yl)nicotinamide]
10 | 8000 ± 1000 nM | CCC(CO)Nc1cccc2nc(NC(=O)c3ccccc3)nn12 (centres unmarked) [Example 50, N-(5-{[1-(hydroxymethyl)propyl]amino}[1,2,4]triazolo[1,5-a]pyridin-2-yl)benzamide]
11 | 5500 nM | COc1cc(-c2ccc3nc(NC(=O)c4ccc(CN(C)C)cc4)nn3c2)ccc1O [Example 147, 4-[(dimethylamino)methyl]-N-[6-(4-hydroxy-3-methoxyphenyl)[1,2,4]triazolo[1,5-a]pyridin-2-yl]benzamide]
12 | 1660 ± 50 nM | O=C(Nc1nc2cccc(NC3CCCOC3)n2n1)c1ccccc1 (centres unmarked) [Example 81, N-[5-(tetrahydro-2H-pyran-3-ylamino)[1,2,4]triazolo[1,5-a]pyridin-2-yl]benzamide]
13 | 990 ± 110 nM | O=C(CCNC(=O)c1ccccc1)Nc1nc2cccc(-c3ccoc3)n2n1 [Example 96, N-(3-{[5-(3-furyl)[1,2,4]triazolo[1,5-a]pyridin-2-yl]amino}-3-oxopropyl)benzamide]
14 | 460 ± 50 nM | O=C(Nc1nc2cc(C(F)(F)F)cc(NCC3CC3)n2n1)c1cccnc1 [Example 89, N-[5-[(cyclopropylmethyl)amino]-7-(trifluoromethyl)[1,2,4]triazolo[1,5-a]pyridin-2-yl]nicotinamide]
15 | 197 ± 6 nM | O=C(Nc1nc2cc(C(F)(F)F)cc(NCCCO)n2n1)c1cccnc1 [Example 124, N-[5-[(3-hydroxypropyl)amino]-7-(trifluoromethyl)[1,2,4]triazolo[1,5-a]pyridin-2-yl]nicotinamide]
16 | 180 ± 20 nM | O=C(Nc1nc2cccc(NC3CCCCCC3)n2n1)c1cccnc1 [Example 61, N-[5-(cycloheptylamino)[1,2,4]triazolo[1,5-a]pyridin-2-yl]nicotinamide dihydrochloride]
17 | 42 ± 7 nM | CC(C)Nc1cc(C(F)(F)F)cc2nc(NC(=O)c3cccnc3)nn12 [Example 99, N-[5-(isopropylamino)-7-(trifluoromethyl)[1,2,4]triazolo[1,5-a]pyridin-2-yl]nicotinamide]
